Results published in patent publication US20250326765A1, “PDE4B INHIBITOR AND USE THEREOF” (XIZANG HAISCO PHARMACEUTICAL CO., LTD., priority 2022, published 2025).

Legend:
[1] = biological target: T1, hERG potassium ion channel (Homo sapiens, UniProt Q12809); experiment: Test for hERG potassium ion channel (manual patch-clamp, CHO cells); type: cell-based; conditions: CHO cells stably expressing hERG, whole cell patch-clamp; read-out: IC50, inhibition of hERG potassium channel current
T1 construct: expressed in transfected cells
Source text: Experimental Platform: Electrophysiological Manual Patch-Clamp System
Cell line: Chinese hamster ovary (CHO) cell line stably expressing hERG potassium ion channel
Experimental method: CHO (Chinese Hamster Ovary) cells stably expressing hERG potassium channel were subjected to a whole cell patch-clamp technique to record the hERG potassium channel current at room temperature. The glass microelectrode was made of a glass electrode blank (BF150-86-10, Sutter) by a puller. The tip resistance after filling the liquid in the electrode was about 2-5 MQ. The glass microelectrode can be connected to the patch-clamp amplifier by inserting the glass microelectrode into an amplifier probe. The clamping voltage and data recording were controlled and recorded by the pClamp 10 software through a computer. The sampling frequency was 10 kHz, and the filtering frequency was 2 kHz. After the whole cell records were obtained, the cells were clamped at −80 mV, and the step voltage that induced the hERG potassium current (IhERG) was depolarized from −80 mV to +20 mV for 2 s, then repolarized to −50 mV, and returned to −80 mV after 1 s. This voltage stimulation was given every 10 s, and the administration process was started after the hERG potassium current was confirmed to be stable (at least 1 minute). The compound was administered for at least 1 minute at each test concentration, and at least 2 cells (n: 2) were tested at each concentration.
Data processing: Data analysis processing was carried out by using pClamp 10, GraphPad Prism 5, and Excel software. The degree of inhibition on the hERG potassium current (peak value of hERG tail current induced at −50 mV) at different compound concentrations was calculated by the following formula:
[formula] • where Inhibition % represents the percentage inhibition of the compound on the hERG potassium current, and I and Io represent the amplitude of the hERG potassium current after and before administration, respectively.
Compound IC50 was calculated using GraphPad Prism 5 software by fitting according to the following equation: […]

[2] = biological target: T2, PDE4B1 (Homo sapiens, UniProt Q07343); experiment: Effect of compounds on PDE4B1 activity (IMAP fluorescence polarization kit); type: biochemical; conditions: class symbols
T2 construct: purchased BPS 60041
Procedure: The IMAP Reaction Buffer containing 0.1% BSA (5×) in the kit was diluted into a 1-fold reaction buffer containing 1 mM DTT. 0.12 nM PDE4B1 (BPS, Cat #60041) was added to the 1-fold reaction buffer to form a 2-fold enzyme solution. 10 μL of the 2-fold enzyme solution was added to wells of a 384-well reaction plate. For the negative control well, 10 μL of the 1-fold reaction buffer was used instead of the enzyme solution. Centrifugation at 1000 rpm for 1 minute and incubation at room temperature for 15 minutes were carried out. 0.2 uM FAM-labeled cAMP (FAM-cAMP, Molecular Device, Cat #R7506) was added to the 1-fold reaction buffer to form a 2-fold substrate solution. 10 μL of the 2-fold substrate solution was added to each well of the 384-well reaction plate. Centrifugation at 1000 rpm for 1 minute was carried out. A reaction was carried out at room temperature for 20 minutes. IMAP Progressive Binding Buffer A (5×), IMAP Progressive Binding Buffer B (5×), and IMAP Progressive Binding Reagent (provided by IMAP FP IPP Explorer Kit) were prepared into a reaction stop solution according to the instructions for use. 60 μL of an […] reaction stop solution was added to each well of the 384-well reaction plate to stop the reaction, and the reaction product was centrifuged at 1000 rpm for 1 minute. Incubation at room temperature in the dark for 60 minutes was carried out. The mP values (Ex480/Em535 (s), Em535 (p)) were read by a microplate reader (Envision).
FP was usually represented by mP value. mP value for FP measurement=1000*(S−G*P)/(S+G*P) • S: fluorescence intensity in parallel direction • P: fluorescence intensity in perpendicular direction • G: G factor=1
[formula] • mP(sample): mP of the test compound in a reaction well • mP(negative control): mP in the negative control well • mP(positive control): mP in the positive control well
According to the calculated inhibition rate at each concentration, the IC50 value of each compound was calculated by XLFit excel add-in version 5.4.0.8 software.
Y=Bottom+(Top−Bottom)/(1+(IC50/X)^HillSlope) Fitting formula: […]

[3] = biological target: T3, PDE4D2 (Homo sapiens, UniProt Q08499); experiment: Effect of compounds on PDE4D2 activity (fluorescence polarization kit); type: biochemical; conditions: class symbols
T3 construct: purchased BPS Bioscience 60345
Method in brief: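 PDE4D2 (0.068 ng/well final) pre-incubated 15 min at room temperature with serially diluted compound, then […] FAM-cAMP (final) added for 30 min. Binding Agent added for 1 h before fluorescence polarization readout (Ex 485/Em 520 nm, mP). Inhibition derived against positive and negative control wells; IC50 from concentration-inhibition data.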

T2 sequence (Q07343 whole entry): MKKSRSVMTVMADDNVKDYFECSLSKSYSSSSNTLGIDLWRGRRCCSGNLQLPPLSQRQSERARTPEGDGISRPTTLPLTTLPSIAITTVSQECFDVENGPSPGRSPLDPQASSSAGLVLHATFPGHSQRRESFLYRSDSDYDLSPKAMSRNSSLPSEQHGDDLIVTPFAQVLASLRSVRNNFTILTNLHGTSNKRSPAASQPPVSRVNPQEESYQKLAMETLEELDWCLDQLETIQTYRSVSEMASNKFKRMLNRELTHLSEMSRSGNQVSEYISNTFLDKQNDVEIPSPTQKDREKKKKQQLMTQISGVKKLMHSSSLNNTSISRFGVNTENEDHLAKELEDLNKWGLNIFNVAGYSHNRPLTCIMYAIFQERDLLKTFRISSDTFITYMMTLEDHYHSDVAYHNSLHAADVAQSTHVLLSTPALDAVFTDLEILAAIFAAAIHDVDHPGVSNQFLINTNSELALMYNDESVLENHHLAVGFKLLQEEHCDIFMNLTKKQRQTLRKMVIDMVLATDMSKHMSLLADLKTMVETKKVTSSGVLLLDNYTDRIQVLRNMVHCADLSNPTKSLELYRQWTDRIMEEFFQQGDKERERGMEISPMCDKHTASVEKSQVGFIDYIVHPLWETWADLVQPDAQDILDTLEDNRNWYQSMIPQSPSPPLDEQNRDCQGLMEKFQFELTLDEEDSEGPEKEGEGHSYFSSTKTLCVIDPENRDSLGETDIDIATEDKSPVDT
T3 sequence (Q08499 303-809): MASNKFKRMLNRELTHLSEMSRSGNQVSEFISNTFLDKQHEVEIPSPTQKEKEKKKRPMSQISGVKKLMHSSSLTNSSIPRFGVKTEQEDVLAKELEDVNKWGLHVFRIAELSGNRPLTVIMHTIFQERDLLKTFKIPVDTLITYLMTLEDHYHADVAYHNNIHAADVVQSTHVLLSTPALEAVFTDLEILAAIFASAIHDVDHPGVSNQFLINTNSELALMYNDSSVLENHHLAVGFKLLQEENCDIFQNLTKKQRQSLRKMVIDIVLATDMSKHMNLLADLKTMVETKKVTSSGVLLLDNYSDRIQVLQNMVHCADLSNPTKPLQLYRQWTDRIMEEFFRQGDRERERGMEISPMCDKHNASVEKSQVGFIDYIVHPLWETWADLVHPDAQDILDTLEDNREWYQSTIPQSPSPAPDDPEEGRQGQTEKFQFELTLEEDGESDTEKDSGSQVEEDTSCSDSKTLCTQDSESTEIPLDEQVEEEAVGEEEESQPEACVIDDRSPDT
T1 sequence (Q12809 whole entry): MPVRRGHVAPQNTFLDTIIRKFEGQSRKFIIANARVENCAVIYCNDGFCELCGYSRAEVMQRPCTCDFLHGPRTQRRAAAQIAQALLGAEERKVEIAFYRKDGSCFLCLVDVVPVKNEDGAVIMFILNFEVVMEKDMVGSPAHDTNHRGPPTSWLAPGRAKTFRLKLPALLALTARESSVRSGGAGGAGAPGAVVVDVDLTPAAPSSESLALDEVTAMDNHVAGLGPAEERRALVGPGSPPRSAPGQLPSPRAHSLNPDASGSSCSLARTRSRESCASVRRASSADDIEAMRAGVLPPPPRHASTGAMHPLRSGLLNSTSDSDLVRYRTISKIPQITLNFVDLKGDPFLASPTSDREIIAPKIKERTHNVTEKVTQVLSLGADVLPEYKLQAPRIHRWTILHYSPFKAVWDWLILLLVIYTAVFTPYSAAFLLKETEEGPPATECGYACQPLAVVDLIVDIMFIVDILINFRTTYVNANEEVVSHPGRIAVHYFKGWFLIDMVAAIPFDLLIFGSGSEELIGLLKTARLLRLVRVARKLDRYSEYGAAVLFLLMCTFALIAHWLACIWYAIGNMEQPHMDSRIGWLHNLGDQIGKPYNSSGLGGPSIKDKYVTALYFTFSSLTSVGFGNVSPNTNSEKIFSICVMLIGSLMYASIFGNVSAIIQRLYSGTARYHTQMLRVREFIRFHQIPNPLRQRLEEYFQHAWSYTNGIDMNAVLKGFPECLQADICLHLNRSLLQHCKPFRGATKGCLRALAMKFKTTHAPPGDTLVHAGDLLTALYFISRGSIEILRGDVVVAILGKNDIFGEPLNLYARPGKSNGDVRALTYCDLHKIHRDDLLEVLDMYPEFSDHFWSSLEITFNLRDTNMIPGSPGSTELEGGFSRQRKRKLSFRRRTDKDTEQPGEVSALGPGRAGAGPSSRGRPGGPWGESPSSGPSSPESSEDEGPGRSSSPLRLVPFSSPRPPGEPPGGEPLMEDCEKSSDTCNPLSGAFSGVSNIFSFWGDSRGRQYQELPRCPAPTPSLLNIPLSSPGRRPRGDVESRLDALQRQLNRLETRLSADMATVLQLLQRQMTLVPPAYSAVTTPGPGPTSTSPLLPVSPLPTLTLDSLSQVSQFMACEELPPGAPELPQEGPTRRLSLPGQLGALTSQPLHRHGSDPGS

| IC50 [2] [µM] | IC50 [3] [µM] | Compound | IC50 [1] [µM] |
| --- | --- | --- | --- |
| < 0.01 | < 0.01 | [O-][S@+]1CCc2nc(N3C[C@H]4CN(c5ccc6c(c5)CC6)C[C@H]4C3)nc(NC3(CO)CCC3)c21 [Compound 31] | 12.2 |
| < 0.01 | < 0.01 | C#Cc1cnc(C2=CCN(c3nc4c(c(NC5(CO)CCC5)n3)[S+]([O-])CC4)CC2)nc1 (stereo not drawn) [Compound 37] | 13.3 |
